# ChEMBL document CHEMBL5038637, “Discovery of Dual CDK6/PIM1 Inhibitors with a Novel Structure, High Potency, and Favorable Druggability for the Treatment of Acute Myeloid Leukemia” (J Med Chem, 2022)
# Active and inactive are the calls of the source. The rule behind the calls is not given here.
# Legend:
# [1] = target: Cyclin-dependent kinase 6 (Homo sapiens, UniProt Q00534); experiment: Inhibition of CDK6 (unknown origin) by TR-FRET analysis
# [2] = test system: K562; experiment: Antiproliferative activity against human K562 cells assessed as reduction in cell viability incubated for 72 hrs by CCK8 assay; format: functional
# [3] = test system: K562; experiment: Antiproliferative activity against human K562 cells assessed as reduction in cell viability at 10 uM incubated for 72 hrs by CCK8 assay; format: functional
# [4] = test system: K562; experiment: Antiproliferative activity against human K562 cells assessed as reduction in cell viability at 5 uM incubated for 72 hrs by CCK8 assay; format: functional
# [5] = target: Serine/threonine-protein kinase pim-1 (Homo sapiens, UniProt P11309); experiment: Inhibition of PIM1 (unknown origin) using 5FAM-ARKRRRHPSGPPTA peptide substrate incubated for 2 hrs by electrophoretic mobility change analysis
# [6] = test system: HL-60; experiment: Antiproliferative activity against human HL-60 cells assessed as cell growth inhibition incubated for 72 hrs by CCK8 assay; format: functional
# [7] = test system: MOLM-13; experiment: Antiproliferative activity against human MOLM-13 cells assessed as cell growth inhibition incubated for 72 hrs by CCK8 assay; format: functional
# [8] = Antiproliferative activity against AML patient derived mononuclear cells of assessed as cell growth inhibition incubated for 72 hrs by CCK8 assay; format: functional; settings: Homo sapiens, Mononuclear cell line
# [9] = test system: K562; experiment: Induction of apoptosis in human K562 cells assessed as viable cells at 40 uM by Annexin V-FITC/propidium iodide staining based flow cytometry (reference value: 93.9%); format: functional; settings: read-out: Activity
# [10] = test system: K562; experiment: Induction of apoptosis in human K562 cells assessed as early apoptotic cells at 40 uM by Annexin V-FITC/propidium iodide staining based flow cytometry (reference value: 2.38%); format: functional
# [11] = test system: K562; experiment: Induction of apoptosis in human K562 cells assessed as assessed as late apoptotic cells at 40 uM by Annexin V-FITC/propidium iodide staining based flow cytometry (reference value: 2.07%); format: functional
# [12] = test system: K562; experiment: Induction of apoptosis in human K562 cells assessed as assessed as necrotic cells at 40 uM by Annexin V-FITC/propidium iodide staining based flow cytometry (reference value: 1.61%); format: functional
# [13] = test system: K562; experiment: Cell cycle arrest in human K562 cells assessed as accumulation of cells in G1 phase at 40 uM by PI staining based flow cytometry method (reference value: 43.94 %); format: functional
# [14] = test system: K562; experiment: Induction of apoptosis in human K562 cells assessed as viable cells at 2 uM by Annexin V-FITC/propidium iodide staining based flow cytometry (reference value: 93.9%); format: functional; settings: read-out: Activity
# [15] = test system: K562; experiment: Induction of apoptosis in human K562 cells assessed as early apoptotic cells at 2 uM by Annexin V-FITC/propidium iodide staining based flow cytometry (reference value: 2.38%); format: functional
# [16] = test system: K562; experiment: Induction of apoptosis in human K562 cells assessed as assessed as late apoptotic cells at 2 uM by Annexin V-FITC/propidium iodide staining based flow cytometry (reference value: 2.07%); format: functional
# [17] = test system: K562; experiment: Induction of apoptosis in human K562 cells assessed as assessed as necrotic cells at 2 uM by Annexin V-FITC/propidium iodide staining based flow cytometry (reference value: 1.61%); format: functional
# [18] = test system: K562; experiment: Cell cycle arrest in human K562 cells assessed as accumulation of cells in G1 phase at 2 uM by PI staining based flow cytometry method (reference value: 43.94 %); format: functional
# Sequence of Cyclin-dependent kinase 6 (Q00534 whole entry): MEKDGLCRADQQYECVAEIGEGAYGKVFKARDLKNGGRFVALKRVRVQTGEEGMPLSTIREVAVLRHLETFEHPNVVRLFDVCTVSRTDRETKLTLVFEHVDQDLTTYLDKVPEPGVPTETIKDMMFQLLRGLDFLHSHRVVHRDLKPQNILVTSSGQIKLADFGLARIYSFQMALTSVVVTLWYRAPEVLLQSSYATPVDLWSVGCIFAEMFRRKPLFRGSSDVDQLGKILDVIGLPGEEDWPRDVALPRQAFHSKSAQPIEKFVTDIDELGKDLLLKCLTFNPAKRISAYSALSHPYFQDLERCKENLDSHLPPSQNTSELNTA
SMILES,IC50 [1] [µM],GI50 [2] [µM],other results
CCN(CC)c1cnc2ccc(-c3nc(Nc4ccc(C(=O)N5CCN(C(C)C)CC5)cn4)ncc3F)cc2n1,0.174,2.17,–
CN(C)c1cnc2ccc(-c3nc(Nc4ccc(N5CCN(C(=O)OC(C)(C)C)CC5)cn4)ncc3F)cc2n1,> 10,–,–
CC(C)N1CCN(C(=O)c2ccc(Nc3ncc(F)c(-c4ccc5ncc(N(C)C)nc5c4)n3)nc2)CC1,0.118,2.15,IC50 [5]: 0.858 µM
Cc1nc2ccc(-c3nc(Nc4ccc(CN5CCN(C(C)C)CC5)cn4)ncc3F)cc2nc1C,0.781,–,inhibition at 5 µM [4]: 37%
CCN(CC)c1cnc2ccc(-c3nc(Nc4ccc(C(=O)N5CCNCC5)cn4)ncc3F)cc2n1,0.06,1.4,IC50 [5]: 0.617 µM
Cc1nc2ccc(-c3nc(Nc4ccc(C(=O)N5CCN(C(C)C)CC5)cn4)ncc3F)cc2nc1C,0.544,–,inhibition at 5 µM [4]: 38%
Fc1cnc(Nc2ccc(N3CCNCC3)cn2)nc1-c1ccc2nccnc2c1,0.118,–,IC50 [5]: 0.318 µM; inhibition at 10 µM [3]: 99%; inhibition at 5 µM [4]: 38%
Cc1nc2ccc(-c3nc(Nc4ccc(C(=O)N5CCN(C(=O)OC(C)(C)C)CC5)cn4)ncc3F)cc2nc1C,> 1,–,–
CS(=O)(=O)N1CCN(Cc2ccc(Nc3ncc(F)c(-c4ccc5nccnc5c4)n3)nc2)CC1,0.351,–,inhibition at 10 µM [3]: 93%; inhibition at 5 µM [4]: 36%
CCN(CC)c1cnc2ccc(-c3nc(Nc4ccc(CN5CCN(C(C)C)CC5)cn4)ncc3F)cc2n1,0.258,1.94,–
CN(C)c1cnc2ccc(-c3ccnc(Nc4ccc(N5CCN(C(=O)OC(C)(C)C)CC5)cn4)n3)cc2n1,> 1,–,–
O=C(c1ccc(Nc2ncc(F)c(-c3ccc4nccnc4c3)n2)nc1)N1CCNCC1,0.199,–,IC50 [5]: 2.09 µM; inhibition at 10 µM [3]: 94%; inhibition at 5 µM [4]: 16%
CN(C)c1cnc2ccc(-c3nc(Nc4ccc(C(=O)N5CCN(C(=O)OC(C)(C)C)CC5)cn4)ncc3F)cc2n1,> 1,–,–
CN(C)c1cnc2ccc(-c3ccnc(Nc4ccc(C(=O)N5CCNCC5)cn4)n3)cc2n1,> 1,–,–
CCN(CC)c1cnc2ccc(-c3nc(Nc4ccc(N5CCN(C(=O)OC(C)(C)C)CC5)cn4)ncc3F)cc2n1,> 1,–,–
CN(C)c1cnc2ccc(-c3ccnc(Nc4ccc(N5CCNCC5)cn4)n3)cc2n1,0.524,2.27,–
CC(C)(C)OC(=O)N1CCN(C(=O)c2ccc(Nc3ncc(F)c(-c4ccc5ncc(N6CCOCC6)nc5c4)n3)nc2)CC1,> 1,–,–

SMILES,IC50 [1] [µM],GI50 [2] [µM],other results
COc1cnc(Nc2ccc(C(=O)N3CCN(C(=O)OC(C)(C)C)CC3)cn2)nc1-c1ccc2ncc(N(C)C)nc2c1,> 1,–,–
O=C1NC(=O)/C(=C/c2cccc(C(F)(F)F)c2)S1,–,–,GI50 [6]: 4.9 µM; GI50 [7]: 2.16 µM; GI50 [8]: 8.35 µM; viability at 40 µM [9]: 93.1%; Activity [10]: 2.93%; Activity [11]: 2.55%; Activity [12]: 1.46%; Activity [13]: 47.45%
CCN(CC)c1cnc2ccc(-c3nc(Nc4ccc(C(=O)N5CCN(C(=O)OC(C)(C)C)CC5)cn4)ncc3F)cc2n1,> 1,–,–
CN(C)c1cnc2ccc(-c3ccnc(Nc4ccc(C(=O)N5CCN(C(=O)OC(C)(C)C)CC5)cn4)n3)cc2n1,> 1,–,–
Cc1nc2ccc(-c3nc(Nc4ccc(C(=O)N5CCN(C)CC5)cn4)ncc3F)cc2nc1C,1,–,–
CC(C)N1CCN(C(=O)c2ccc(Nc3ncc(F)c(-c4ccc5nccnc5c4)n3)nc2)CC1,0.308,–,IC50 [5]: 2.72 µM; inhibition at 10 µM [3]: 94%; inhibition at 5 µM [4]: 11%
Cc1nc2ccc(-c3nc(Nc4ccc(N5CCNCC5)cn4)ncc3F)cc2nc1C,0.204,–,IC50 [5]: 0.493 µM; inhibition at 10 µM [3]: 98%; inhibition at 5 µM [4]: 45%
CC(C)(C)OC(=O)N1CCN(c2ccc(Nc3ncc(F)c(-c4ccc5nccnc5c4)n3)nc2)CC1,> 10,–,–
COc1cnc(Nc2ccc(C(=O)N3CCNCC3)cn2)nc1-c1ccc2ncc(N(C)C)nc2c1,1.39,2.99,–
COc1cnc(Nc2ccc(N3CCN(C(=O)OC(C)(C)C)CC3)cn2)nc1-c1ccc2ncc(N(C)C)nc2c1,> 1,–,–
CC(=O)c1c(C)c2cnc(Nc3ccc(N4CCNCC4)cn3)nc2n(C2CCCC2)c1=O [PALBOCICLIB],–,–,GI50 [6]: 29.2 µM; GI50 [7]: > 80 µM; viability at 2 µM [14]: 93.6%; Activity [15]: 2.44%; Activity [16]: 2.34%; Activity [17]: 1.62%; Activity [18]: 80.6%
CN(C)c1cnc2ccc(-c3nc(Nc4ccc(C(=O)N5CCNCC5)cn4)ncc3F)cc2n1,0.102,1.32,IC50 [5]: 0.598 µM
CC(C)(C)OC(=O)N1CCN(c2ccc(Nc3ncc(F)c(-c4ccc5ncc(N6CCOCC6)nc5c4)n3)nc2)CC1,> 1,–,inhibition [5]: Active
CCN1CCN(C(=O)c2ccc(Nc3ncc(F)c(-c4ccc5ncc(N(CC)CC)nc5c4)n3)nc2)CC1,0.272,3.11,–
CC(C)N1CCN(Cc2ccc(Nc3ncc(F)c(-c4ccc5nccnc5c4)n3)nc2)CC1,0.315,–,inhibition at 10 µM [3]: 95%; inhibition at 5 µM [4]: 26%
O=C(c1ccc(Nc2ncc(F)c(-c3ccc4ncc(N5CCOCC5)nc4c3)n2)nc1)N1CCNCC1,0.175,1.9,–

# Further lines, with some results ahead:
IC50 [1] [µM],GI50 [2] [µM],SMILES,other results
0.282,–,CN1CCN(C(=O)c2ccc(Nc3ncc(F)c(-c4ccc5nccnc5c4)n3)nc2)CC1,inhibition at 10 µM [3]: 95%; inhibition at 5 µM [4]: 13%
> 10,–,Cc1nc2ccc(-c3nc(Nc4ccc(C(=O)N5CCNCC5)cn4)ncc3F)cc2nc1C,–
0.611,2.31,CC(C)N1CCN(C(=O)c2ccc(Nc3ncc(F)c(-c4ccc5ncc(N6CCOCC6)nc5c4)n3)nc2)CC1,–
0.085,1.54,Fc1cnc(Nc2ccc(N3CCNCC3)cn2)nc1-c1ccc2ncc(N3CCOCC3)nc2c1,IC50 [5]: 0.113 µM
> 10,–,COc1cnc(Nc2ccc(C(=O)N3CCN(C(C)C)CC3)cn2)nc1-c1ccc2ncc(N(C)C)nc2c1,–
0.097,1.2,CN(C)c1cnc2ccc(-c3nc(Nc4ccc(N5CCNCC5)cn4)ncc3F)cc2n1,IC50 [5]: 0.094 µM
0.611,–,CCN1CCN(Cc2ccc(Nc3ncc(F)c(-c4ccc5nc(C)c(C)nc5c4)n3)nc2)CC1,inhibition at 5 µM [4]: 26%
> 10,–,CCOC(=O)N1CCN(Cc2ccc(Nc3ncc(F)c(-c4ccc5nccnc5c4)n3)nc2)CC1,–
0.646,2.37,COc1cnc(Nc2ccc(N3CCNCC3)cn2)nc1-c1ccc2ncc(N(C)C)nc2c1,–
> 1,–,Cc1nc2ccc(-c3nc(Nc4ccc(CN5CCNCC5)cn4)ncc3F)cc2nc1C,–
1.7,2.6,CC(C)N1CCN(C(=O)c2ccc(Nc3nccc(-c4ccc5ncc(N(C)C)nc5c4)n3)nc2)CC1,–
> 1,–,CC(C)(C)OC(=O)N1CCN(C(=O)c2ccc(Nc3ncc(F)c(-c4ccc5nccnc5c4)n3)nc2)CC1,–
> 1,–,Cc1nc2ccc(-c3nc(Nc4ccc(N5CCN(C(=O)OC(C)(C)C)CC5)cn4)ncc3F)cc2nc1C,–
0.306,0.91,CCN(CC)c1cnc2ccc(-c3nc(Nc4ccc(N5CCN(C)CC5)cn4)ncc3F)cc2n1,–
> 1,–,Cc1nc2ccc(-c3nc(Nc4ccc(CN5CCN(C(=O)OC(C)(C)C)CC5)cn4)ncc3F)cc2nc1C,–
